Measured values published in patent US20240139126A1, “NUTRITIONAL COMPOSITIONS FOR SKELETAL MUSCLE” (MITOCHOLINE LTD, priority 0001, published 2024).

Columns and labels:
primary myotubes [1] = assay: Mitophagy/autophagy: co-localization of mitochondria and lysosomes in primary myotubes; assay type: cell-based, rat; details: blend 50 μM DiSu+20 μM NAM; individual compounds in corresponding molar amounts
Experimental: (§1) Primary Skeletal Muscle Cell culture. Primary myotube cells were obtained from postnatal day 0-2 (P0-P2) rat pups which were sacrificed by decapitation. Briefly, the rats were immersed in 70% ethanol and the hind-limbs removed under a dissection microscope, in dissection solution containing Dulbecco's Phosphate Buffered Saline (PBS) with penicillin streptomycin (5000 units/ml) and Amphotericin B (2.5 mg/L). The tissues were then digested in 0.2% collagenase solution at 37° C. for 30-40 minutes. The reaction was stopped by adding 2-3 ml fetal bovine serum (FBS), and the tissue suspension was centrifuged at 2010 rpm (700 g) for 10 minutes. The cell pellet was resuspended in pre-warmed growth medium, Dulbecco's modified Eagle's medium (DMEM), containing 20% FBS, 100 i.u./ml penicillin and 200 i.u./ml streptomycin], and plated on 22 mm coverslips that were pre-coated with 0.2% gelatin for 1 hour at 37° C. Cells were then cultured in a humidified CO2 incubator (5% CO2 in air) at 37° C. After 2 or 3 days, the medium was changed to a low-serum medium (DMEM containing 10% FBS without antibiotics), and was subsequently renewed every 3 or 4 days. All experiments were performed in vitro between days 2 and 11 in culture when spindle-shaped myoblasts had proliferated and aligned themselves for fusion (˜70% confluency).

primary myotube cultures = assay: Mitochondrial membrane potential (TMRM fluorescence) in primary myotube cultures; assay type: cell-based, rat; details: DiSu 50 μM; NAM 20 μM
Experimental: Primary myotube cells were obtained from postnatal day 0-2 (P0-P2) rat pups which were sacrificed by decapitation. Briefly, the rats were immersed in 70% ethanol and the hind-limbs removed under a dissection microscope, in dissection solution containing Dulbecco's Phosphate Buffered Saline (PBS) with penicillin streptomycin (5000 units/ml) and Amphotericin B (2.5 mg/L). The tissues were then digested in 0.2% collagenase solution at 37° C. for 30-40 minutes. The reaction was stopped by adding 2-3 ml fetal bovine serum (FBS), and the tissue suspension was centrifuged at 2010 rpm (700 g) for 10 minutes. The cell pellet was resuspended in pre-warmed growth medium, Dulbecco's modified Eagle's medium (DMEM), containing 20% FBS, 100 i.u./ml penicillin and 200 i.u./ml streptomycin], and plated on 22 mm coverslips that were pre-coated with 0.2% gelatin for 1 hour at 37° C. […]
Tetramethyl rhodamine methyl ester (TMRM) was used to study the changes of the mitochondrial membrane potential (Δψm). […] TMRM fluorescence was excited at 543 nm (HeNe laser), and emission was measured at >560 nm. […] Therefore, the changes in potential are reflected by changes in fluorescence intensity within the mitochondria which is measured after thresholding out the background signal from the cytosol to give a mean value per pixel within the mitochondrial population of a cell. […]

[2] = test system: dexamethasone-treated primary myotubes; assay: Energy capacity of primary myotubes in dexamethasone-induced sarcopenia cell culture model; assay type: cell-based, rat; details: in words; for time until cell total energy exhaustion and collapse: IAA 20 μM + oligomycin 2 μg/ml; for energy capacity / energy depletion compared to control cells: IAA + oligomycin
Experimental: Primary rat myocyte cultures were prepared as described by Yao G., et al. ((Yao G., et. al. (2011) J Cell Sci v.124: 4194-4202. doi: 10.1242/jcs.088260).
All experiments were performed with 5-11 days cultured cells.
To test energetic capacity of cultures myotubes in atrophic conditions, myocyte cultures were differentiated for 5 days followed incubation in the presence of 1, 10, and 100 μM dexamethasone for 24 h.
All cultures were treated with an inhibitor of the ATP production in cellular cytoplasm via glycolysis, Iodoacetic Acid (IAA) (20 μM), and an inhibitor of the ATP production in mitochondria by oxidative phosphorylation, oligomycin (2 μg/ml). […] The cellular concentration of both cations can be indirectly measured by measuring fluorescence of Mag Fura-2 dye.

[3] = test system: adult onset mitochondrial myopathy patients; design: dose or concentration left out as unconfirmed; details: cited from earlier work
primary myotubes [4] = assay: NADH autofluorescence: redox index and mitochondrial pool of NADH in primary myotubes; assay type: cell-based, rat; details: blends 100 μM DiSu+40 μM NAM, 50 μM DiSu+20 μM NAM, choline 100 μM, succinate 50 μM
Experimental: as §1
NADH autofluorescence was excited at 351 and measured at 375-470 nm.

mice = details: dietary supplementation; cited from earlier work

Compound | autophagy (co-localization of mitochondria and lysosomes) (primary myotubes [1]) | TMRM fluorescence compared to control (primary myotube cultures) | time until cell total energy exhaustion and collapse [2] | energy capacity / energy depletion compared to control cells [2] | blood and muscle NAD levels, muscle strength and mitochondrial biogenesis [3] | redox index (NADH-dependent mitochondrial respiration) (primary myotubes [4]) | endurance exercise ability (mice)
C[N+](C)(C)CCO.C[N+](C)(C)CCO.O=C([O-])CCC(=O)[O-] [DiSu, dicholine succinate] | significantly increase autophagy | increase in TMRM fluorescence | extended the time until cell total energy exhaustion and collapse | – | – | – | –
NC(=O)c1cccnc1 [NAM, nicotinamide] | not | increase in TMRM fluorescence | – | Neither choline or succinate or NAM treatments had a noticeable effect | increased in all human subjects | did not induce significant changes | –
O=C([O-])CCC(=O)[O-].[Na+].[Na+] [Succinate*, Sodium succinate (salt)] | not | – | – | Neither choline or succinate or NAM treatments had a noticeable effect | – | did not induce significant changes | increased endurance exercise ability
CN(CC(=O)O)C(=N)N [creatine] | – | – | extended the time until cell total energy exhaustion and collapse | – | – | – | –
Choline bitartrate [Choline**] | not | – | – | – | – | – | –
